In ChEMBL document CHEMBL1143808, “A generally applicable method for assessing the electrophilicity and reactivity of diverse nitrile-containing compounds” (Bioorg Med Chem Lett, 2007) one finds Activity data, which are given here for three molecules.

Assay type in all cases: ADME, Microsome
Data set [1] concerns Liver microsomes. The experiment in a line: Irreversible covalent binding in human liver microsomes at 10 uM after 1 hr.
The test system of data set [2] is Liver microsomes. The experiment in a line: Irreversible covalent binding in human liver microsomes at 100 uM after 30 mins. To be noted: 0.5 h.
The test system of data set [3] is Liver microsomes. The experiment in a line: Irreversible covalent binding in rat liver microsomes after 1 hr.

Consider `[3H]C([3H])([3H])S(=O)(=O)c1ccc(-c2ccc([C@H](N[C@@H](CC(C)C)C(=O)NCC#N)C(F)(F)F)cc2)cc1`, for which the Activity in the data set on Liver microsomes [1] is reported as 7 pmol/mg; with Liver microsomes [2] it was 0.06%.

In the case of `COCCN1CCC(Cc2ccc(C(=O)NCc3cnc(C#N)nc3NCC(C)(C)C)cc2)CC1`, the Activity in the data set on Liver microsomes [1] was determined as 70 pmol/mg; with Liver microsomes [2], 0.5%.

As for `N#CN1CCC(NS(=O)(=O)c2ccccc2)C1` (configuration not stated), the results for the Activity with Liver microsomes [3], in the data set on Liver microsomes [1] and with Liver microsomes [2] were 550 pmol/mg, 460 pmol/mg and 3.6%, respectively.
